Test results published in patent US5126258A (priority 1988, dated 1992).

What was measured:
37G2 = experiment: Hydrolysis of reactant ligands by receptor 37G2; format: biochemical, mouse; design: key to hydrolysis by 37G2, symbol: --: No hydrolysis observed; details: pH 8.0; for hydrolysis by 37G2, symbol: 19: 2/5 uM, 21: 5/10 uM receptor/ligand
Protocol: (§1) ^1 Preliminary initial hydrolyses shown as the percentage of admixed
(§2) reactant ligand consumed for catalyzed and spontaneous hydrolyses. "--" =
(§3) No hydrolysis observed. "NT" = Not tried. All reactions were carried out
(§4) at pH 8.0 in a 50 mM phosphate buffer unless otherwise noted. Hydrolytic
(§5) percentages were determined by HPLC using a Hitachi model 655A12 liquid
(§6) chromatograph with a C18 Vydac 201TP54 column, except as noted below.
(§7) Mixtures of acetonitrile a nd water containing 0.1 percent trichloroaceti
(§8) acid [28:72-50:50 (v/v)] were used as elutant. Hydrolyses of Compounds 5
(§9) and 20 were assayed using fluorescence data.
(§10) ^2 Concentrations of receptor molecules (Rec.) and reactant ligands
(§11) (Lig.) in micromolar units, presuming a molecular weight of 150,000
(§12) daltons for each receptor molecule.
(§13) ^3 Reactant ligand (Lig.) used as substrate.
(§14) ^4 Time in hours that the reaction was permitted to take place.
(§15) ^5 Spontaneous hydrolytic percentages for the time period indicated.
(§16) ^6 Reaction carried out at pH 7.2 in a 50 mM phosphate buffer.

44A2 = experiment: Hydrolysis of reactant ligands by receptor 44A2; format: biochemical, mouse; design: key to hydrolysis by 44A2, symbol: --: No hydrolysis observed; details: pH 8.0; for hydrolysis by 44A2, symbol: 19: 2/5 uM, 21: 5/10 uM receptor/ligand
Protocol: as §1, §2, §3, §4, §5, §6, §7, §8, §9, §10, §11, §12, §13, §14, §15, §16

1209 = experiment: Hydrolysis of reactant ligands by receptor 12C9 (column head prints 1209); format: biochemical, mouse; design: key to hydrolysis by 1209, symbol: --: No hydrolysis observed; details: pH 8.0; for hydrolysis by 1209, symbol: 19: 2/5 uM, 21: 5/10 uM receptor/ligand
Protocol: as §1, §2, §3, §4, §5, §6, §7, §8, §9, §10, §11, §12, §13, §14, §15, §16

[1] = Spontaneous (uncatalyzed, background) hydrolysis; format: physicochemical; design: key to Spon. (spontaneous hydrolysis), symbol: --: No hydrolysis observed; details: for Spon. (spontaneous hydrolysis), symbol: pH 8.0
Protocol: The practical range of pH for the assay is limited by the rapid spontaneous rate of hydrolysis of an ester Compound 5 above pH 8.0. Initially, the ester was used at a concentration that was about four-fold greater than that of the protein, and the mixture was incubated at pH 7.2 for 10 minutes. Any change in fluorescence above background was noted.
The lack of spectroscopic distinction between such esters and their hydrolysis products recommended a chromatographic analysis of the process. Referring to FIG. 3, a mixture of Compound 7 (5 uM) and the monoclonal antibody from hybridoma P3 6D4 (0.1 uM) in phosphate buffer (50 mM, pH 8.0) was analyzed over time by high performance liquid chromatography (HPLC). The accelerated hydrolysis of the ester was apparent from the decrease of its peak and the concurrent increase in two new peaks that correspond with the expected products. Under these conditions, the ester is completely consumed in 60-80 minutes during which time the background rate accounts for about 12 to 16 percent hydrolysis. The chromatographic profile is the same as that produced by treatment with hog liver esterase.
^c The rate constants were determined spectrophotometrically (at 245
nm) by measuring initial rates at five concentrations of ester.
as §1, §2, §3, §4, §5, §6, §7, §8, §9, §15
Reaction kinetics were studied using three reactant ligands as substrates for monoclonal receptors 37G2 and 22F5. Data from initial rates were consistent with Michaelis-Menten reaction mechanism for a usual enzyme-substrate system. Initial rates were followed using at 271 nm using a U.V.-visible spectorphotometer for Compound 17, and a fluorescence spectrometer for Compounds 5 and 20, using an excitation wavelength of 355 nm and an emission wavelength of 455 nm for both compounds.

22F5 = experiment: Hydrolysis of reactant ligands by receptor 22F5; format: biochemical, mouse; design: key to hydrolysis by 22F5, symbol: --: No hydrolysis observed; details: pH 8.0; for hydrolysis by 22F5, symbol: 19: 2/5 uM, 21: 5/10 uM receptor/ligand
Protocol: as §1, §2, §3, §4, §5, §6, §7, §8, §9, §10, §11, §12, §13, §14, §15, §16

7E5 = experiment: Hydrolysis of reactant ligands by receptor 7E5; format: biochemical, mouse; design: key to hydrolysis by 7E5, symbol: --: No hydrolysis observed; details: pH 8.0; for hydrolysis by 7E5, symbol: 19: 2/5 uM, 21: 5/10 uM receptor/ligand
Protocol: as §1, §2, §3, §4, §5, §6, §7, §8, §9, §10, §11, §12, §13, §14, §15, §16

17G8 = experiment: Hydrolysis of reactant ligands by receptor 17G8; format: biochemical, mouse; design: key to hydrolysis by 17G8, symbol: --: No hydrolysis observed; details: pH 8.0; for hydrolysis by 17G8, symbol: 19: 2/5 uM, 21: 5/10 uM receptor/ligand
Protocol: as §1, §2, §3, §4, §5, §6, §7, §8, §9, §10, §11, §12, §13, §14, §15, §16

[2] = tested on: eight monoclonal receptors 21G2, 7E5, 37G2, 13E10, 12C9, 44A2, 17G8 and 22F5; experiment: Catalyzed hydrolysis of reactant ligands by the eight QPN1 monoclonal receptors, summary; format: biochemical, mouse; details: pH 8.0
Protocol: Mice were hyperimmunized with the Compound 13-KLH conjugate over a three to four week time period. Sera were assayed in an ELISA using a Compound 13-BSA conjugate bound to microtiter plate wells as the solid-phase antigen. Cloned hybridomas were also screened using that ELISA assay.
Each of those catalyses could be inhibited by an appropriate analog-ligand. Thus, a relatively high percentage of induced monoclonal receptors was capable of catalyzing an esterolytic reaction. The reason for this relatively high percentage of useful receptors being induced is unknown, but could be due to the presence of phosphonamidate group nitrogen atom, as compared to a phosphonate oxygen atom, or to the quinoline nucleus of the analog-ligand. Those eight catalytic monoclonal receptors and the hybridomas that secrete them are identified by the laboratory designations "QPN1 7E5", "QPN1 12C9", "QPN1 13E10", "QPN1 17G8", "QPN1 21G2", "QPN1 22F5", "QPN1 37G2" and QPN1 44A2. The prefix "QPNI" is sometimes omitted herein when discussing these hybridomas and receptors.
Amide cleavage for Compounds 14 and 15 was assayed by analyzing for the production of free aminoquinaldine or aminonaphthalene by measuring the increase in the azo dye that results from derivatizing the free aminoquinaldine or aminonapthalene with a diazotization reagent.
Catalysis reactions were conducted by preparing a reaction admixture of 100 microliters (ul) total volume containing 5 micromolar (uM) monoclonal antibody, 50-75 uM amide reactant ligand substrate and a buffer described hereinafter. The buffer included in the above admixture varied depending upon the pH utilized as follows: pH 5, 10 […] sodium acetate, 10 mM sodium chloride; pH 7.2, 10 mM sodium phosphate, 0.15 molar (M) sodium chloride; pH 8.0; 50 mM sodium phosphate. The amide-containing substrates screened in this assay were added to the above admixture in 1 ul of a 100-fold concentrated stock solution of dimethyl formamide (DMF). Monoclonal antibody was added to the above admixture from a concentrated stock solution. The resulting admixture was placed into the well of a 96 well flat bottom microtiter plate (Costar, Cambridge, Mass.) and maintained in a moist vapor environment chamber at 23 degrees C. The production of aminoquinaldine or aminonaphthalene was then assayed as described below after 2,3,5, or 6 days.
The aminoquinaldine or aminonapthalene product produced by the catalyzed reaction was measured by first admixing 20 ul of 5M HCl, 80 ul acetone and 10 ul 0.5% (w/v) sodium nitrite to the reaction admixture to form a second admixture and maintaining that second admixture for 3 minutes at room temperature. Thereafter, 10 ul 2.5% (w/v) ammonium sulfamate was added to form a third admixture that was maintained for 2 minutes at room temperature. A still further 10 ul of 0.5% (w/v) N-(1-napthyl)ethylenediamine dihydrochloride was added to form a fourth admixture that was then maintained for 15 minutes at room temperature. Thereafter the resulting azo dye present in the fourth admixture was measured by absorbance spectroscopy at 540 nanometers (nm) for aminoquinaldine using a Model EL 309 Automated Microplate Reader (Bio-Tek Instruments, Winooski, Vt.).

13E10 = experiment: Hydrolysis of reactant ligands by receptor 13E10; format: biochemical, mouse; design: key to hydrolysis by 13E10, symbol: --: No hydrolysis observed; details: pH 8.0; for hydrolysis by 13E10, symbol: 19: 2/5 uM, 21: 5/10 uM receptor/ligand
Protocol: as §1, §2, §3, §4, §5, §6, §7, §8, §9, §10, §11, §12, §13, §14, §15, §16

21G2 = experiment: Hydrolysis of reactant ligands by receptor 21G2; format: biochemical, mouse; design: key to hydrolysis by 21G2, symbol: --: No hydrolysis observed; details: pH 8.0; for hydrolysis by 21G2, symbol: 19: 2/5 uM, 21: 5/10 uM receptor/ligand
Protocol: as §1, §2, §3, §4, §5, §6, §7, §8, §9, §10, §11, §12, §13, §14, §15, §16

[3] = receptor/ligand uM, time h: 17 1/10, 2, 18 2/10, 24, 20 2/10, 0.33, 5 1/5, 0.33, 22 5/10, 3.5, preliminary

hydrolysis by 37G2, symbol (37G2) | hydrolysis by 44A2, symbol (44A2) | hydrolysis by 1209, symbol 1209 | hydrolysis by 22F5, symbol (22F5) | hydrolysis by 7E5, symbol (7E5) | hydrolysis by 17G8, symbol (17G8) | hydrolysis by 13E10, symbol (13E10) | hydrolysis by 21G2, symbol (21G2) | hydrolysis by 37G2 (37G2; [3]) | hydrolysis by 44A2 (44A2; [3]) | hydrolysis by 1209 1209; [3] | Spon. (spontaneous hydrolysis) ([1]; pH 8.0, 50 mM phosphate, time (h): 17 2, 18 24, 20 0.33, 5 0.33, 22 3.5) | hydrolysis by 22F5 (22F5; [3]) | hydrolysis by 7E5 (7E5; [3]) | hydrolysis by 17G8 (17G8; receptor/ligand uM, time h: 18 2/10, 24, 20 2/10, 0.33, 5 1/5, 0.33, 22 5/10, 3.5, preliminary) | hydrolysis by 13E10 (13E10; [3]) | hydrolysis by 21G2 (21G2; [3]) | Compound | Spon. (spontaneous hydrolysis), symbol [1] | receptors (of eight) that catalyzed hydrolysis of the compound [2]
-- | -- | -- | -- | -- | -- | -- | -- |  |  |  |  |  |  |  |  |  | CC(=O)Nc1ccc(CC(=O)Nc2cccc3ccccc23)cc1 [Compound 15] | -- | none of the receptors catalyzed hydrolysis
-- | -- | -- | -- | -- | -- | -- | -- |  |  |  |  |  |  |  |  |  | CC(=O)Nc1ccc(CC(=O)Oc2cccc3ccc(C)nc23)cc1 [Compound 16] | -- | failed to react
 |  |  |  |  |  |  |  | 92 percentage of reactant ligand | 84 percentage of reactant ligand | 56 percentage of reactant ligand | 34 percentage of reactant ligand | 100 percentage of reactant ligand | 76 percentage of reactant ligand | 84 percentage of reactant ligand | 69 percentage of reactant ligand | 72 percentage of reactant ligand | CC(=O)Oc1cccc2ccccc12 [Compound 18] |  | all of the receptors except 12C9 catalyzed the hydrolysis
